# In US20150231117A1 (Array BioPharma Inc., priority 2012, published 2015):
# Tests used:
# AAG = molecular target: T1, AAG; assay: TRANSIL binding assay, AAG; parameters: species or system human
# T1 construct: other: TRANSIL, PBS pH 7.4, 2 μM drug; other: not for other serum proteins such as albumin; fused on or other part: AGP immobilised on TRANSIL silica beads (ready-to-use kit)
# Method: (§1) TRANSIL® Binding Methodology (www.admecell.com)—Assay Buffers: phosphate buffered saline (“PBS”), pH 7.4 (Gibco 10010) and dimethylsulfoxide (“DMSO”). Plates: Ordered from ADMEcell (Alameda, Calif.). AGP—Full Plate: TBP-0211-0096; AGP—Strip Plate: TBP-0211-1196; HSA—Full Plate: TBP-0210-0096; HSA—Strip Plate: TBP-0210-1196. Stop Solution: 100% Acetonitrile spiked with Internal Standard (0.4 μM final concentration).
# (§2) Drug Dilution: Dilution of drug samples to make a final 2 μM drug concentration (1% DMSO) (used 360 μL of final diluted drug per protein testing, i.e., 720 μL to run both AAG and HSA). Brought drug up to a 10 mM stock solution in DMSO. Diluted 10 mM stock to a 200 μM (0.2 mM) stock solution (added 4 μL of 10 mM stock solution into 196 μL, of DMSO). Diluted 200 μM stock to a 20 μM stock solution (added 100 μL of 200 μM DMSO stock solution into 900 μL of PBS Buffer, pH 7.4).
# (§3) Thawed the assay kit either at room temperature (approximately 3 hours) or in the refrigerator at 4° C. overnight. The plates were put in the incubator, CO2 (5%) for 30 minutes prior to addition of compound. A pre-dilution of the compounds (10-fold assay concentration) were prepared, see Drug Dilution step above. […] Test article solution (45 μL) was added to the tubes/well of the ready-to-use kit and incubated for 2 minutes. […] The concentration of the supernatant was quantified with LC/MS (API4000). […]
# HSA = molecular target: T2, HSA (Homo sapiens, UniProt P02768); assay: TRANSIL binding assay, HSA; details: PBS pH 7.4, 2 μM drug
# T2 construct: purchased ADMEcell (Alameda, Calif.) TBP-0210-0096 / TBP-0210-1196
# Method: as §1, §2, §3
# % Fu to human plasma = format: in vitro ADME; details: human plasma (ready-to-use bead-based binding assay kit)
# Method: Thawed the assay kit either at room temperature (approximately 3 hours) or in the refrigerator at 4° C. overnight. The plates were put in the incubator, CO2 (5%) for 30 minutes prior to addition of compound. A pre-dilution of the compounds (10-fold assay concentration) were prepared, see Drug Dilution step above. The drug dilutions were warmed in a 37° C. water bath prior to dosing compound into plate. Caution: Check carefully the pre-dilution for any precipitation and ensure a sufficient buffer solubility and stability of your test article. Test article solution (45 μL) was added to the tubes/well of the ready-to-use kit and incubated for 2 minutes. Mixed ten times by re-suspending the beads. Re-suspended approximately half of the total volume of the vial (total volume is 450 μL). […] The vials were spun with a swing-out centrifuge for 10 minutes at 750 g. 100 μL was carefully transferred to 96-well plate. Acetonitrile (50 μL) was added with labetalol as the internal standard (0.4 μM final concentration). The plates were sealed for analysis. The concentration of the supernatant was quantified with LC/MS (API4000). See also, Brown, Karin D. supra. The result is in Table 1. pKa value was estimated using ACD/pKa DB software. Calculations: [formula]
# NCI H929 MM cells = assay: 3 day Cell Titer Blue viability assay with added AAG, NCI H929; format: cell-based, human
# From the text: (§4) Kit: Cell Titer-Blue Cell Viability Assay, Promega Corp. (Madison Wis.) Catalog No. G8081
# RPMI-8226 MM cells = assay: Cell Titer Blue viability assay with added AAG, RPMI 8226; format: cell-based, human
# From the text: as §4
# KSP = molecular target: T3, KSP (Homo sapiens, UniProt P52732); assay: Estimated in vitro unbound IC50
# T3 sequence (P52732 1-1056): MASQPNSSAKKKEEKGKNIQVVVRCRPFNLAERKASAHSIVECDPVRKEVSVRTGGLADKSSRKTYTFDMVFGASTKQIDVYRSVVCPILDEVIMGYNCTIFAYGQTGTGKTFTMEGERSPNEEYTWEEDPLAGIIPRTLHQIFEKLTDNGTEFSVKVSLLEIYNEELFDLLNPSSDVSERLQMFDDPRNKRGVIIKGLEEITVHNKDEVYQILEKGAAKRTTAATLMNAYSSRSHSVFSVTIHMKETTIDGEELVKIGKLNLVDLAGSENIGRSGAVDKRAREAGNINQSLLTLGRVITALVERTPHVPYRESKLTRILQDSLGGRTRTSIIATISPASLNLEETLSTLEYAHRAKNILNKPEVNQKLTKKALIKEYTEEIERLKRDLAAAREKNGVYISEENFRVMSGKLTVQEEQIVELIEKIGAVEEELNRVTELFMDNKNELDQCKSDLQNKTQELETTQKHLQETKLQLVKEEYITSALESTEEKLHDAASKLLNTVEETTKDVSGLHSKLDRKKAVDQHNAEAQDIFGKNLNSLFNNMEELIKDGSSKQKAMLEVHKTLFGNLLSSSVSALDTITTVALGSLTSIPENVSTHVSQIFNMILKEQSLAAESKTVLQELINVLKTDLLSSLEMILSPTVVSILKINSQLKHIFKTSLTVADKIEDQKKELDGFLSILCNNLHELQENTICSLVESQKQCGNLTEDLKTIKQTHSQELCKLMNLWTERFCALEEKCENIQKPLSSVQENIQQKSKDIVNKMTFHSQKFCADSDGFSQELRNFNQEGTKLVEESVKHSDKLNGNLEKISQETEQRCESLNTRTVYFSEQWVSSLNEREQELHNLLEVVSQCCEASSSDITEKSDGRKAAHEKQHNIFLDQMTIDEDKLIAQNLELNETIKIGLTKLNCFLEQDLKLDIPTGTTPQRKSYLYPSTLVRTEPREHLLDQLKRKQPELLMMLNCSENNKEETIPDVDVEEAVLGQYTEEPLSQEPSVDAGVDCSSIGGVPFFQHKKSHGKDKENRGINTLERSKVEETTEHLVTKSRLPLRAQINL
# Method: Model optimization was accomplished using the QRPEM engine of Phoenix 6.3 (Pharsight Corporation, St. Louis, Mo.). Model selection was based on AIC comparisons and diagnostic plots. Simulations were for a typical patient receiving Phase 2 dose of 1.5 mg/m^2 on day 1 and day 2 with varying [AAG].
# Dose limiting toxicity = details: in vivo
# From the text: As such, prophylactic granulocyte colony-stimulating factory (“G-CSF”) may be administered.
# [1] = test system: Patients with Relapsed or Refractory Multiple Myeloma; assay: Clinical study in patients with relapsed or refractory multiple myeloma, analysed by baseline [AAG]; format: in vivo, human
# Method: The R&D Systems, Inc. (Minneapolis, Minn.) Quantikine® Human α1-Acid Glycoprotein Immunoassay (Catalog No. DAGPOO) is a 4.5 hour solid-phase ELISA designed to measure human AAG in cell culture supemates, serum, plasma, and urine. This assay employed the quantitative sandwich enzyme immunoassay technique. […] Standards and samples are pipetted into the wells, and any AAG present is bound by the immobilized antibody. After washing away any unbound substances, an enzyme-linked polyclonal antibody specific for AAG is added to the wells. Following a wash to remove any unbound antibody-enzyme reagent, a substrate solution is added to the wells, and color develops in proportion to the amount of AAG bound in the initial step. The color development is stopped, and the intensity of the color is measured. The assay was performed as described in the package insert, except where described otherwise below.
# [2] = Phase 2 + dex (with dexamethasone), All Patients, n=18
# [3] = Phase 2 + dex (with dexamethasone), [AAG] <1.1 g/L, n=12
# [4] = Phase 2 Single Agent, All Patients, n=27
# [5] = Phase 2 Single Agent, [AAG] <1.1 g/L, n=21
# T2 sequence (P02768 25-609): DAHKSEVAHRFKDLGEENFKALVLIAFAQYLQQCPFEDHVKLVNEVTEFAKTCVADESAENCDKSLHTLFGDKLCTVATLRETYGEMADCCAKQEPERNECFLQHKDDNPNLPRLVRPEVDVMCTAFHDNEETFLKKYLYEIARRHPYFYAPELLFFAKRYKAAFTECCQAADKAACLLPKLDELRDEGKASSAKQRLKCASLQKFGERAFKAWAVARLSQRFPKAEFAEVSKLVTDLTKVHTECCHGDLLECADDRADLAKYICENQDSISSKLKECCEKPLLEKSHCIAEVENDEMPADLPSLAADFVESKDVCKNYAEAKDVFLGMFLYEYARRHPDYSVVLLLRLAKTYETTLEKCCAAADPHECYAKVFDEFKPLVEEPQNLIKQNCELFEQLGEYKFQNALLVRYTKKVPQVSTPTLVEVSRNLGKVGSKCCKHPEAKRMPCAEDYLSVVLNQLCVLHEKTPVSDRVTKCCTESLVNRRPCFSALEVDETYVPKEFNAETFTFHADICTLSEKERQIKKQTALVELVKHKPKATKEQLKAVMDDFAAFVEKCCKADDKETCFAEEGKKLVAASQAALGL
structure (smiles),measurement,setting,value
"CON(C)C(=O)N1N=C(c2cc(F)ccc2F)S[C@@]1(CCCN)c1ccccc1.Cl [ARRY-520, (S)-2-(3-Aminopropyl)-5-(2,5-difluorophenyl)-N-methoxy-N-methyl-2-phenyl-1,3,4-thiadiazole-3(2H)-carboxamide]",Kd,"AAG; TRANSIL, PBS pH 7.4, 2 μM drug",5 µM
same,affinity for AAG in in vitro assays,AAG; not for other serum proteins such as albumin,low micromolar affinity
same,Kd,HSA,147 µM
same,fraction unbound at 2 min,% Fu to human plasma,0.07
same,decrease of cellular sensitivity to ARRY-520 as [AAG] increases,"NCI H929 MM cells; AAG 0.5-4 mg/mL final concentration, FIG. 1",greater than 30 fold
same,effect of increasing AAG levels on cell sensitivity,NCI H929 MM cells; NCI H929,decrease cell sensitivity
same,effect of increasing AAG levels on cell sensitivity,RPMI-8226 MM cells,decrease cell sensitivity
same,IC50,KSP,0.000438 µM
same,major dose limiting toxicity (DLT),Dose limiting toxicity,neutropenia
same,Median Time on Study (months),"[1]; Phase 1, All Patients, n=27",3.9 months
same,"≧MR, number of patients","[1]; Phase 1, All Patients, n=27",4
same,"≧MR, rate","[1]; Phase 1, All Patients, n=27",15%
same,"≧PR, number of patients","[1]; Phase 1, All Patients, n=27",3
same,"≧PR, rate","[1]; Phase 1, All Patients, n=27",11%
same,Median Time on Study (months),"[1]; Phase 1, [AAG] <1.1 g/L, n=20",5.2 months
same,"≧MR, number of patients","[1]; Phase 1, [AAG] <1.1 g/L, n=20",4
same,"≧MR, rate","[1]; Phase 1, [AAG] <1.1 g/L, n=20",20%
same,"≧PR, number of patients","[1]; Phase 1, [AAG] <1.1 g/L, n=20",3
same,"≧PR, rate","[1]; Phase 1, [AAG] <1.1 g/L, n=20",15%
same,Median Time on Study (months),[1]; [2],3.9 months
same,"≧MR, number of patients",[1]; [2],6
same,"≧MR, rate",[1]; [2],33%
same,"≧PR, number of patients",[1]; [2],4
same,"≧PR, rate",[1]; [2],22%
same,Median Time on Study (months),[1]; [3],6.2 months
same,"≧MR, number of patients",[1]; [3],6
same,"≧MR, rate",[1]; [3],50%
same,"≧PR, number of patients",[1]; [3],4
same,"≧PR, rate",[1]; [3],33%
same,Median Time on Study (months),[1]; [4],2.8 months
same,"≧MR, number of patients",[1]; [4],6
same,"≧MR, rate",[1]; [4],22%
same,"≧PR, number of patients",[1]; [4],5
same,"≧PR, rate",[1]; [4],19%
same,Median Time on Study (months),[1]; [5],3.4 months
same,"≧MR, number of patients",[1]; [5],6
same,"≧MR, rate",[1]; [5],29%
same,"≧PR, number of patients",[1]; [5],5
same,"≧PR, rate",[1]; [5],24%
same,"time to coming off study, most patients with high baseline [AAG]","[1]; baseline [AAG] greater than 1.1 g/L, FIG. 5",less than 5 months
same,increase of risk for discontinuing the study,"[1]; with each 1.0 g/L increase in [AAG], p<0.01",2.5 fold
